Holding throughout (assay): NCI tumour cell line growth inhibition, 48 h
The subject of experiment [1] is A549 NSCLC.
Experiment [2] concerns COLO 205 colon.
The subject of experiment [3] is DU-145 prostate.
Experiment [4] relates to HS 578T breast.
Experiment [5] has as its system HT29 colon.
The test system of experiment [6] is KM12 colon.
In experiment [7] the test system is MOLT-4 leukemia.
For experiment [8], the system named is OVCAR-8 ovarian.
The subject of experiment [9] is PC-3 prostate.
The subject of experiment [10] is SK-MEL-5 melanoma.
The subject of experiment [11] is SK-OV-3 ovarian.
Experiment [12] concerns LOX IMVI melanoma.

“And” between values parts separate entries of the source, which are not always exact repeats. Identical values can stand only once.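 Results reflect a 48-hour exposure of cells in 96-well plates to compound at five concentrations. GI50: concentration for 50% inhibition of growth. The concentration for full growth arrest is given as TGI.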 Some results are limits rather than exact numbers.

Our source for the TGI and GI50 values is PubChem BioAssay (NCI).

Take `COC(CNC(=O)C(C)NC(=O)CCc1ccccc1)OC` (configuration not stated): the TGI in [1], in experiment [2], in experiment [3], in experiment [4], in experiment [5] and in experiment [6] was above 100 µM each time. Also, the TGI in [7], in experiment [8], in [9], in [10] and in experiment [11] was above 100 µM each time.
For the molecule `O=P(Nc1ccc(Cl)cc1)(Oc1ccccc1)N(CCCl)CCCl` (configuration not stated), the TGI in experiment [1], in experiment [2], in experiment [5], in [6], in experiment [7] and in [8] was above 100 µM in each case. Besides, the TGI in experiment [10] and in experiment [11] was above 100 µM each time.
In the case of `COc1cc(/C=C2\C(=O)N(c3ccccc3)C(c3ccccc3)S2(=O)=O)cc(OC)c1OC` (configuration not stated), the TGI in experiment [1] was above 100 µM; in experiment [2], above 100 µM; in experiment [3], above 100 µM; in experiment [4], above 100 µM; in [5], 94.1 µM; in experiment [6] it was above 100 µM. Also, the TGI in experiment [12], in experiment [7], in experiment [8], in experiment [10] and in experiment [11] was above 100 µM each time.
With `O=C(NNC(=S)Nc1cccc(Cl)c1)c1cc(-c2ccccc2)nc2ccccc12`, the TGI in experiment [1] worked out at 32.3 µM; in experiment [2] it was 29.2 µM; in experiment [3] it was 29.5 µM; in experiment [4], 41.9 µM; in experiment [5] it was 45.3 µM; in experiment [6], 49 µM. The TGI was 74.6 µM in experiment [7]; 53.3 µM in experiment [8]; 29.3 µM in [9]; 33.2 µM in experiment [10]; 34.5 µM in experiment [11].
For `Cc1c(S(=O)(=O)/N=C(\NO)Nc2ccc(Cl)c(Cl)c2)sc2ccc(Cl)cc12`, the TGI in [1] was 68.8 µM; in experiment [2], 35.7 µM; in experiment [3], 37.1 µM; in [4], 80.9 µM; in experiment [5], 29.3 µM; in [6], 38.6 µM. The TGI is 43.3 µM in experiment [12]; above 100 µM in experiment [7]; 46.6 µM in experiment [8]; 36.7 µM in [9]; 31.5 µM in [10].
`CCOC(=O)CNc1c(OCc2ccccc2)c(=O)c1=O`: the TGI in [1], in experiment [2], in experiment [3], in experiment [4], in experiment [5] and in experiment [6] was above 100 µM in each case. Further, the TGI in experiment [7], in experiment [8], in experiment [9], in experiment [10] and in experiment [11] was above 100 µM each time.
As to `O=C(c1ccc(N=Cc2ccccc2O)cc1)c1ccc(N=Cc2ccccc2O)cc1`, the TGI in [1], in experiment [2], in [3], in experiment [5], in [6] and in experiment [12] was above 100 µM in each case. Besides, the TGI in [7], in experiment [9], in [10] and in experiment [11] was above 100 µM throughout.
For the molecule `NN/C(=N\S(=O)(=O)c1cc2ccccc2s1)Nc1ccc(Cl)cc1`, the TGI in [1] is 39.8 µM; in [2], 33 µM; in experiment [3], 32.3 µM; in experiment [5] it was 38.9 µM; in experiment [6], 48.1 µM; in experiment [12], 38.6 µM. The TGI was 68 µM in [7]; 47.9 µM in [8]; 62.4 µM in experiment [9]; 31.8 µM in experiment [10]; above 100 µM in experiment [11].
Consider `Cc1ccc([N+](=O)[O-])cc1S(=O)(=O)Nc1ccc(C2=NNC(c3ccccc3)C2)cc1` (configuration not stated), for which the TGI is above 100 µM in experiment [1]; 41.4 µM in experiment [2]; 92 µM in [3]; above 100 µM in [4]; above 100 µM in experiment [5]; 34.4 µM in experiment [6]. Also, the TGI in [7] is 39.8 µM; in [8], above 100 µM; in experiment [9], above 100 µM; in [10] it was 30.9 µM; in [11], 58.8 µM.
Regarding `CC1NC(=O)CC(c2ccccc2)N(N=O)C1c1ccccc1` (configuration not stated), the TGI in experiment [1] was above 100 µM; in experiment [2], above 72.9 µM; in experiment [5], above 100 µM; in experiment [6] it was above 100 µM; in [12], above 100 µM; in experiment [7], above 100 µM. Besides, the figures for the TGI in [8], in experiment [10] and in experiment [11] were above 82.7 µM, above 100 µM and 62.6 µM, respectively.
Turning to `O=Cc1ccc2c(c1)CC1(Cc3ccccc3C1)C2`, the TGI is above 100 µM in [1]; 54.2 µM in experiment [2]; above 100 µM in experiment [4]; 51.2 µM in experiment [5]; above 100 µM in experiment [6]; 37.9 µM in experiment [12]. Further, the TGI was 42.9 µM in experiment [7]; 39 µM in experiment [8]; 59.6 µM in [9]; 29.4 µM in experiment [10]; above 100 µM in experiment [11].
Turning to `NC(Cc1ccccc1)C(=O)N[C@H]1c2ccsc2/C(=N/O)[C@H]1O` (some centres not stated), the TGI in experiment [1], in experiment [2], in experiment [3], in experiment [5], in [12] and in experiment [8] was above 100 µM in each case. Besides, the TGI in experiment [9], in experiment [10] and in experiment [11] was above 100 µM throughout.
In the case of `O=C(NI1OC(=O)c2ccccc21)c1ccc(Cl)cc1`, the TGI in [1], in experiment [2], in experiment [3], in [5], in experiment [6] and in [12] was above 100 µM throughout. Moreover, the TGI in [8], in experiment [9], in experiment [10] and in experiment [11] was above 100 µM in each case.
`NC(N)=N/N=C/c1c[nH]c2ccccc12`: the TGI in experiment [1], in [2], in experiment [5], in experiment [6], in [12] and in experiment [7] was above 100 µM each time. The TGI in experiment [8], in [10] and in experiment [11] was above 100 µM in each case.
`CC1(C)NC2C(=O)c3c([nH]c4ccccc34)[C@]3(C)CCC1CC23` (some centres not stated): the TGI in [1], in experiment [2], in experiment [3], in [4], in [5] and in experiment [6] was above 100 µM throughout. For the same molecule, the TGI in experiment [12], in experiment [7], in experiment [8], in [9] and in experiment [10] was above 100 µM in each case.
Regarding `Nc1nc(N)c2ncn(-c3ccc(Cl)cc3)c2n1`, the TGI in [1], in [2], in experiment [3], in [5], in [6] and in [12] was above 100 µM in each case. For the same molecule, the TGI in experiment [8] was above 100 µM; in experiment [9], above 100 µM; in experiment [10], above 100 µM; in experiment [11], 53.3 µM.
Take `O=C1C=CC[C@H]2O[C@@H](COC(=O)Cc3ccccc3)C[C@H]2O1`: the TGI in experiment [1] was above 100 µM; in [2] it was above 100 µM; in experiment [3], above 100 µM; in experiment [4], 59.4 µM; in experiment [5] it was 71.7 µM; in experiment [6], 42.4 µM. In addition, the TGI in [7] is above 100 µM; in experiment [8], 77.9 µM; in [9], above 100 µM; in [10] it was above 100 µM; in experiment [11], above 100 µM.
In the case of `COCN(CCC1=CCCCC1)C(=O)OC`, the TGI in experiment [1], in experiment [2], in experiment [3], in experiment [4], in experiment [5] and in experiment [6] was above 100 µM throughout. In addition, the TGI in experiment [7], in [8], in experiment [9], in experiment [10] and in experiment [11] was above 100 µM throughout.
For the molecule `COc1cc(/C=C2/C[C@H]3[C@@H]4CC=C5C[C@@H](O)CC[C@]5(C)[C@H]4CC[C@]3(C)NC2=O)cc(OC)c1OC`, the TGI in [1] is above 100 µM; in experiment [2], above 57.9 µM; in experiment [3], 23.4 µM; in experiment [5], above 80.7 µM; in experiment [6], above 100 µM; in experiment [12] it was above 100 µM. Moreover, the TGI in [7] is above 100 µM; in experiment [8], above 70.8 µM; in [9] it was 79.4 µM; in [10], above 47.5 µM; in experiment [11], above 92.3 µM.
Take `CCN(CC)CCNc1nc2ccc([N+](=O)[O-])cc2[n+]([O-])n1`: the TGI in experiment [1] was 61 µM; in [2], 18.6 µM; in experiment [3], above 100 µM; in experiment [5], 52.1 µM; in experiment [6], above 100 µM; in experiment [7], 50.6 µM. Besides, the figures for the TGI in [8], in [9] and in experiment [10] were 43.1 µM, 75.3 µM and 22.3 µM, respectively.
`O=C(N/N=C/c1ccccc1)c1c(-c2cccnc2)cnc2ccccc12`: the TGI in experiment [1], in experiment [2], in experiment [3], in experiment [5], in [6] and in experiment [7] was above 100 µM throughout. The TGI in experiment [8], in experiment [9], in experiment [10] and in experiment [11] was above 100 µM throughout.
Turning to `C=CCCN1CCc2c([nH]c3ccccc23)C1C(=O)O` (configuration not stated), the TGI in experiment [1], in experiment [2], in experiment [5], in experiment [6], in [12] and in [7] was above 100 µM each time. Also, the TGI in [10] and in [11] was above 100 µM throughout.
On to `O=C1CCC(c2ccc(Cl)cc2)=NN1c1nsc2ccccc12`, for which the TGI is above 100 µM in experiment [1]; above 100 µM in experiment [2]; above 100 µM in experiment [5]; above 100 µM in [6]; 53.2 µM in [7]; above 100 µM in [8].
Turning to `COc1cc(C(=O)N(Cc2cccnc2)C(=S)N(Cc2cccnc2)C(=O)c2cc(OC)c(OC)c(OC)c2)cc(OC)c1OC`, the TGI in experiment [1] is above 100 µM; in experiment [2], above 100 µM; in experiment [3], above 100 µM; in experiment [4], above 100 µM; in [5], above 100 µM; in [6] it was 56.7 µM. For the same molecule, the TGI in experiment [12], in experiment [7], in [8], in [10] and in experiment [11] was above 100 µM throughout.
Regarding `COc1cc(/C=C(\C#N)C(N)=O)cc(Br)c1O`, the TGI in experiment [1] was above 100 µM; in experiment [2], above 100 µM; in experiment [5], above 100 µM; in experiment [6] it was above 100 µM; in [12], 59.2 µM and > 100 µM; in [7], above 100 µM. Besides, the TGI in experiment [8], in [10] and in [11] was above 100 µM throughout. The GI50 in experiment [2] was 73.8 µM and > 100 µM.
With `CNc1ccc(C(=O)CC(O)CCC(C)C2OC(=O)CC(O)CC(=O)CC(O)CC(O)CC(O)CC(O)CC3(O)CC(O)C(C(=O)OC)C(CC(O[C@@H]4O[C@H](C)[C@@H](O)[C@H](N)[C@@H]4O)/C=C/C=C/C=C/C=C/C=C/C=C/C=C/C2C)O3)cc1` (some centres not stated), the GI50 is 2.69 µM in [2]; 1.85 µM in [3]; 3.63 µM in experiment [5]; 3.9 µM in experiment [6]; 3.3 µM in experiment [12]; 2.62 µM in experiment [7]. The GI50 in experiment [10] is 1.42 µM; in experiment [11] it was 2.66 µM. Besides, the TGI in [2] was 6.6 µM; in experiment [3], 3.55 µM; in experiment [5] it was 24.7 µM; in experiment [6], 12.4 µM; in experiment [12], above 100 µM; in experiment [7], 6.31 µM. The TGI turned out to be 3.17 µM in experiment [10] and 6.92 µM in experiment [11].
